From patent publication US7786141B2 (Vertex Pharmaceuticals Incorporated, priority 2004, dated 2010)

Tests used:
M1 muscarinic receptor = molecular target: T1, M1 muscarinic receptor (Homo sapiens, UniProt P11229); assay: Functional mobilization of intracellular calcium (FLIPR) in M1-CHO cells; format: cell-based; conditions: Table 4; for Emax: 100% efficacy is the maximum response obtained with the Carbachol control; for M1 Activity: modulating M1 receptor
T1 construct: expressed in transfected cells; host or cells: CHO (M1-CHO)
T1 sequence (P11229 1-460): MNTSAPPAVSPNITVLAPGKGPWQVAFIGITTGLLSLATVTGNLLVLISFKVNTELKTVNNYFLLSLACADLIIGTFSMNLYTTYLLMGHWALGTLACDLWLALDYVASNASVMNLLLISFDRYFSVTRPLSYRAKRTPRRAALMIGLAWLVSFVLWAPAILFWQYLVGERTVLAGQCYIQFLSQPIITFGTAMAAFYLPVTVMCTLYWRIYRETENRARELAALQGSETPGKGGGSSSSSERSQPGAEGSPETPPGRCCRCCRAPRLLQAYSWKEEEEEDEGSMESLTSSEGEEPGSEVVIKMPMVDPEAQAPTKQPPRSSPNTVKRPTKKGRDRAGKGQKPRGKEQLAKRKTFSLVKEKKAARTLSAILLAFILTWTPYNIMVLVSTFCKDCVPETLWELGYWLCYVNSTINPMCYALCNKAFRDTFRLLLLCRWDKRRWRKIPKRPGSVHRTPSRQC
Outline: (§1)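 Measured via Fluo-3 fluorescence on a FLIPR, CHO cells with either muscarinic subtype received compound in 0.5% DMSO. Antagonism was assessed after 15 min pre-incubation followed by carbachol at each subtype's EC80; agonism from compound addition alone.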

M4 muscarinic receptor = molecular target: T2, M4 muscarinic receptor (Homo sapiens, UniProt P08173); assay: Functional mobilization of intracellular calcium (FLIPR) in M4-CHO cells; format: cell-based; conditions: Table 4; for Emax: 100% efficacy is the maximum response obtained with the Carbachol control; for M4 Activity: modulating M4 receptor
T2 construct: expressed in transfected cells; host or cells: CHO (M4-CHO)
T2 sequence (P08173 1-479): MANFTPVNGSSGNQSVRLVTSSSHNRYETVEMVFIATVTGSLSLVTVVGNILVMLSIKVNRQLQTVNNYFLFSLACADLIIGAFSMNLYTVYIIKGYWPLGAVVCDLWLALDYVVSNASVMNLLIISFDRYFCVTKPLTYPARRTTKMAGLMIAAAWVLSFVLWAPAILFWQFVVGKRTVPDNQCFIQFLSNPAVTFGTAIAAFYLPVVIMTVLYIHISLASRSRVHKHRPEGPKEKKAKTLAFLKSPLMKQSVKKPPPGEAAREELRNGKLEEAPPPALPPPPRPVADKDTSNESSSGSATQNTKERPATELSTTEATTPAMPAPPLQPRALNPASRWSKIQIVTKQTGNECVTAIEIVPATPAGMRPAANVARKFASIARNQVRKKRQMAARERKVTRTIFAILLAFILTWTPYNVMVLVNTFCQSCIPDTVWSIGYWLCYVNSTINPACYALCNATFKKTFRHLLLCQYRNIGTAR
Outline: as §1

Compound | Emax (M1 muscarinic receptor) | M1 Activity (M1 muscarinic receptor) | Emax (M4 muscarinic receptor) | M4 Activity (M4 muscarinic receptor)
CC#CC(C)OC(=O)N1CCC(N2CCC3(CC2)CN(C(=O)N(C)C)c2ccc(F)cc23)CC1 (stereo not shown) [compound 614] | 25 to 100% | xxx (activity was measured to be less than 2.0 μM) | 25 to 100% | xxx (activity was measured to be less than 2.0 μM)
CCOC(=O)N1CCC(N2CCC3(CC2)CN(C(C)=O)c2cccc(C(F)(F)F)c23)CC1 [compound 615] | 25 to 100% | xxx (activity was measured to be less than 2.0 μM) | < 25% | xx (activity was measured to be between 2.0 μM and 5.0 μM)
CC(=O)NC1CCC2(CCN(CC3CCOCC3)CC2)c2ccccc21 (stereo not shown) [compound 616] | > 100% | xxx (activity was measured to be less than 2.0 μM) | 25 to 100% | x (activity was measured to be greater than 5.0 μM)
CN(C)C(=O)N[C@H]1CCC2(CCN(C3CCCCCC3)CC2)c2ccccc21 [compound 617] | 25 to 100% | xx (activity was measured to be between 2.0 μM and 5.0 μM) | > 100% | xxx (activity was measured to be less than 2.0 μM)
CCC=CCOC(=O)N1C2CCC1CC(N1CCC3(CC1)CN(C(C)=O)c1ccccc13)C2 (stereo not shown) [compound 618] | 25 to 100% | xxx (activity was measured to be less than 2.0 μM) | 25 to 100% | xxx (activity was measured to be less than 2.0 μM)
CN(C)C(=O)N1CC2(CCN(C3CCN(C(=O)c4ccon4)CC3)CC2)c2cc(F)ccc21 [compound 619] | 25 to 100% | xx (activity was measured to be between 2.0 μM and 5.0 μM) | 25 to 100% | xxx (activity was measured to be less than 2.0 μM)
CCCC#CCOC(=O)N1CCC(N2CCC3(CC2)CN(C(C)=O)c2ccccc23)CC1 [compound 620] | 25 to 100% | x (activity was measured to be greater than 5.0 μM) | < 25% | x (activity was measured to be greater than 5.0 μM)
O=C1CCCCC1N1CC2(CCN(C3CC4CCC(C4)C3)CC2)c2cc(F)ccc21 (stereo not shown) [compound 621] | 25 to 100% | xx (activity was measured to be between 2.0 μM and 5.0 μM) | 25 to 100% | xxx (activity was measured to be less than 2.0 μM)
Cc1ccc2c(c1)C1(CCN(CC3CC4CCC(C4)C3)CC1)CN2 (stereo not shown) [compound 622] | < 25% | x (activity was measured to be greater than 5.0 μM) | < 25% | x (activity was measured to be greater than 5.0 μM)
CC(=O)N1CC2(CCN(C3CC4CCC(C3)N4C(=O)O[C@H]3CCOC3)CC2)c2ccccc21 (stereo partly shown) [compound 623] | 25 to 100% | xxx (activity was measured to be less than 2.0 μM) | 25 to 100% | xxx (activity was measured to be less than 2.0 μM)
CCC(C)(C)C1CCC(N2CCC3(CC[C@H](NC(C)=O)c4ccccc43)CC2)CC1 (stereo partly shown) [compound 624] | 25 to 100% | xxx (activity was measured to be less than 2.0 μM) | < 25% | x (activity was measured to be greater than 5.0 μM)
CN(C)C(=O)N1CC2(CCN(C[C@@H]3CCN(C(=O)OCC(F)F)C3)CC2)c2cc(F)ccc21 [compound 625] | 25 to 100% | xxx (activity was measured to be less than 2.0 μM) | > 100% | xxx (activity was measured to be less than 2.0 μM)
CCOC(=O)N1CCC(N2CCC3(CC2)CN(C(C)=O)c2ccccc23)CC1 [compound 626] | 25 to 100% | xxx (activity was measured to be less than 2.0 μM) | 25 to 100% | xxx (activity was measured to be less than 2.0 μM)
CS(=O)(=O)N[C@H]1CCC2(CCN(CC3CC4C=CC3C4)CC2)c2ccccc21 (stereo partly shown) [compound 627] | 25 to 100% | xxx (activity was measured to be less than 2.0 μM) | 25 to 100% | xxx (activity was measured to be less than 2.0 μM)
COC(=O)N1CCCC(N2CCC3(CC2)CN(C(=O)N(C)C)c2ccc(F)cc23)CC1 (stereo not shown) [compound 628] | 25 to 100% | xxx (activity was measured to be less than 2.0 μM) | 25 to 100% | xxx (activity was measured to be less than 2.0 μM)
CCOC(=O)N1CCC(N2CCC3(CC2)CN(C(C)=O)c2c(-c4ccc(C(N)=O)cc4)cccc23)CC1 [compound 629] | 25 to 100% | xx (activity was measured to be between 2.0 μM and 5.0 μM) | 25 to 100% | xx (activity was measured to be between 2.0 μM and 5.0 μM)
CCCOC(=O)N1CCC(N2CCC3(CC2)CN(C(C)=O)c2ccc(F)cc23)C1 (stereo not shown) [compound 632] | < 25% | x (activity was measured to be greater than 5.0 μM) | < 25% | x (activity was measured to be greater than 5.0 μM)
CN(C)C(=O)N1CC2(CCN(C3CCN(C(=O)CCC(F)(F)F)CC3)CC2)c2cc(F)ccc21 [compound 633] | 25 to 100% | xx (activity was measured to be between 2.0 μM and 5.0 μM) | < 25% | x (activity was measured to be greater than 5.0 μM)
CC(=O)N1CC2(CCN(C3CCN(C(=O)OC(C)C)C3)CC2)c2cc(F)ccc21 (stereo not shown) [compound 634] | < 25% | x (activity was measured to be greater than 5.0 μM) | < 25% | x (activity was measured to be greater than 5.0 μM)
CC(=O)N[C@H]1CCC2(CCN(CC3CCC3)CC2)c2ccccc21 [compound 636] | 25 to 100% | xxx (activity was measured to be less than 2.0 μM) | 25 to 100% | xxx (activity was measured to be less than 2.0 μM)
CC#CCOC(=O)N1CC[C@H](CN2CCC3(CC2)CN(C(C)=O)c2ccccc23)C1 [compound 637] | > 100% | xxx (activity was measured to be less than 2.0 μM) | 25 to 100% | xxx (activity was measured to be less than 2.0 μM)
CC(=O)N[C@H]1CC2(CCN(C3CCC(C(C)(C)C)CC3)CC2)c2ccccc21 (stereo partly shown) [compound 638] | < 25% | x (activity was measured to be greater than 5.0 μM) | < 25% | x (activity was measured to be greater than 5.0 μM)
O=C(N[C@H]1CC2(CCN(CC3CCCCC3)CC2)c2ccccc21)c1ccoc1 [compound 639] | 25 to 100% | x (activity was measured to be greater than 5.0 μM) | < 25% | x (activity was measured to be greater than 5.0 μM)
CC(=O)N[C@H]1CC2(CCN(CC3CC4CCC3C4)C2)c2ccc(F)cc21 (stereo partly shown) [compound 640] | 25 to 100% | xxx (activity was measured to be less than 2.0 μM) | 25 to 100% | xxx (activity was measured to be less than 2.0 μM)
CC(=O)N[C@H]1CC2(CCN(C3CC(C)(C)CC(C)(C)C3)CC2)c2ccccc21 [compound 641] | < 25% | x (activity was measured to be greater than 5.0 μM) | < 25% | x (activity was measured to be greater than 5.0 μM)
c1ccc2c(c1)CCCC21CCN(C2C[C@@H]3CC[C@H]2C3)CC1 (stereo partly shown) [compound 642] | 25 to 100% | x (activity was measured to be greater than 5.0 μM) | > 100% | xxx (activity was measured to be less than 2.0 μM)
COc1cc2c(cc1OC)C1(CCN(C3CCCCC3)CC1)C[C@@H]2N(C(C)=O)[C@@H](C)c1ccccc1 [compound 643] | < 25% | x (activity was measured to be greater than 5.0 μM) | < 25% | x (activity was measured to be greater than 5.0 μM)
CC(=O)N1CC2(CCN(CC3CCOCC3)CC2)c2cc(F)ccc21 [compound 644] | < 25% | x (activity was measured to be greater than 5.0 μM) | < 25% | x (activity was measured to be greater than 5.0 μM)
